From patent US10668118B2, “Microbial consortium and uses thereof” (The Regents of the University of California, priority 2016, dated 2020) come the findings set out here.

This experiment deals with CD4^+CD25^+FOXP3^+ cells. Description: Ex vivo dendritic cell challenge and T cell co-culture with 12,13-DiHOME. The class given is cell-based, human. The method, then:
Ex vivo dendritic cell challenge and T cell co-culture. Fecal samples from five of ten NGM1 and seven of eight NGM3 neonates that had undergone metabolic profiling were used (biological replicates). Excluded samples from these groups had insufficient volume for analyses. Fecal samples were homogenized 1 g ml^−1 (w:v) in pre-warmed phosphate-buffered saline (PBS) containing 20% FBS (FBS). Samples were vortexed, incubated (37° C., 10 min) and centrifuged (14,000 rpm, 30 min). Supernatant was filter-sterilized through a 0.2-μm filter before being used in the dendritic cell (DC) T cell assay described below. PBS was used as the negative control. Treatment conditions used for the DiHOME experiment included: 75 μM, 130 μM and 200 μM 12,13 DiHOME (Cayman Chemical, Ann Arbor, Mich.) solubilized in 0.4%, 0.15% and 0.05% DMSO, respectively. DiHOME solutions were added to R10 media (Roswell Park Memorial Institute media 1640 with 10% heat-inactivated FBS (antigen activator) and 2 mM 1-glutamine and 100 U ml^−1 penicillin-streptomycin added; Life Technologies) and exposed to DCs within 1 h of preparation. Controls included PBS and DMSO (delivered in R10 media) at corresponding percentages used to dissolve the different concentrations of DiHOME.
Peripheral blood mononuclear cells (PBMCs) were purified from plasma obtained from healthy, de-identified human donors (Blood Centers of the Pacific, San Francisco, Calif.) through the cell-sourcing program that ensures donor confidentiality. Donors signed an agreement acknowledging that their blood may be used for research. PBMCs were isolated using Ficoll-Hypaque gradient centrifugation, washed twice with R10 media and incubated for 18 h. Dendritic cells (DCs) were isolated from PBMCs using the EasySep Human Pan-DC Pre-Enrichment Kit (STEMCELL Technologies, Vancouver, BC). DCs (0.5×10^6 cells ml^−1) from two donors (biological replication) were treated in triplicate (treatment replicate) with either cell-free fecal water ([…]) or varying concentrations of DiHOME, and cultured in R10 media supplemented with 10 ng ml^−1 GM-CSF and 20 ng ml^−1 IL-4 at 37° C.^27 for 2 d, for the fecal-water assay, or 5 d, for the DiHOME experiment. For the DiHOME experiment, freshly prepared media containing DiHOME or control exposures was replaced every 48 h. For the fecal-water experiment, the assay was repeated twice on one donor (technical replicates) and once on donor B owing to insufficient numbers of cells recovered from the latter donor. Treatment replicates were also considered biological replicates because the human donor cells are not clonal.
Twenty-four hours before co-culture with CD4^+ T cells, DC maturation was stimulated by using DC growth mediators (10 ng ml^−1 […] [(TNF-α), 10 ng ml^−1 IL-1b, 10 ng ml^−1 IL-6 and […] (PGE2)]. In preparation for co-culture, DCs were washed in fresh R10 media, counted via flow cytometry and plated in TexMACs Medium (Miltenyi Biotec, San Diego, Calif.) at 0.5×10^6 live CD45^+ cells per well.
Autologous T lymphocytes were purified from the PBMCs using a naïve CD4^+ T cell isolation kit (Miltenyi Biotec). After purification, naïve autologous CD4^+ T cells were suspended in the TexMACS Medium (Miltenyi Biotec) and added to the treated DCs at a ratio of 10:1 in the presence of soluble anti-CD28 and anti-CD49d ([…]). […] Cytokine secretion was evaluated by cytometric bead array, following the manufacturer's protocol (BD Biosciences). […]

Entries after “also recorded” stand apart in the source; their conditions may differ.

`CCCCCC(O)C(O)C/C=C\CCCCCCCC(=O)O` (centres unmarked) [12,13-DiHOME]: the “proportion of CD4^+CD25^+FOXP3^+ cells” value is, setting by setting: (75 μM, compared to vehicle control (LME P=0.04)) “significantly reduced”; (130 μM, compared to vehicle control (LME P<0.001)) “significantly reduced”; (200 μM, compared to vehicle control (LME P=0.001)) “significantly reduced”; (all concentrations examined, compared with vehicle treatment) “recapitulated the effect of NGM3 fecal water; also recorded: reduced”. Also, the “effect size for the suppression of CD4^+CD25^+FOXP3^+” value (130 μM, preliminary assays) is listed as “approximately seven”.
